The values that follow come from patent publication US10730864B2, “RAD51 inhibitors and uses thereof” (THE REGENTS OF THE UNIVERSITY OF CALIFORNIA, priority 2015, dated 2020).

“Also recorded” adds a separate entry of the source. Read-outs that look alike come from different tables or passages of the source.

The test system of assay [1] is triple-negative human breast cancer cell line MDA-MB-468. Description: XTT cell killing / growth inhibition assay, MDA-MB-468. Type of assay: cell-based. To be noted: for IC50: Homo sapiens. On the procedure:
(§1) Standard XTT assays with a four-day drug treatment procedure were performed to measure the dose dependent cytotoxicity of IBR analogs in cultured cells. In brief, cells were plated on 96-well dishes one day before the drug treatment, followed by drug treatment on day 2 and XTT assay on day 6 after drug addition by using a commercial cell proliferation kit (Roche Scientific) following the instructions.
(§2) Triplicate sets were measured and compiled for final data presentation.
To test the possibility of inhibiting triple-negative breast cancer, the newly synthesized IBR2 analogues IBR101-124 were screened of their growth inhibition abilities using an XTT assay.

Assay [2] has as its system human Chronic Myelogenous Leukemia cell line K562. Description: XTT growth inhibition assay, K562. Type of assay: cell-based. On the procedure: as §1, §2
(§3) The growth inhibition of a panel of cancer cell lines was tested against IBR120 using an XTT assay. These cell lines included human Chronic Myelogenous Leukemia cell line K562, human breast cancer cell lines MCF7, MDA-MB-231, MDA-MB-361, MDA-MB-435, MDA-MB-468, Hs578-T, and T47D, human Osteosarcoma cell line U2OS, human Glioblastoma cell line T98G, human Cervical Cancer cell line HeLa, as well as human mammary gland normal epithelial cell line MCF10A as normal control.

For assay [3], the system named is human breast cancer cell line MCF7. In words: XTT growth inhibition assay, MCF7. To be noted: MCF7, Mammary Gland Adenocarcinoma. It is filed as cell-based. On the procedure: as §1, §2, §3
In assay [4] the test system is human breast cancer cell line MDA-MB-231. In words: XTT growth inhibition assay, MDA-MB-231. Type of assay: cell-based. To be noted: MDA-MB-231, Mammary Gland Adenocarcinoma. On the procedure:
as §1, §2, §3

The test system of assay [5] is human breast cancer cell line MDA-MB-361. Description: XTT growth inhibition assay, MDA-MB-361. Type of assay: cell-based. To be noted: MDA-MB-361, Mammary Gland Adenocarcinoma. On the procedure: as §1, §2, §3
For assay [6], the system named is human breast cancer cell line MDA-MB-435. In words: XTT growth inhibition assay, MDA-MB-435. Type of assay: cell-based. To be noted: MDA-MB-435, Melanoma/Mammary Gland Ductal Carcinoma. On the procedure: as §1, §2, §3
Assay [7] relates to human breast cancer cell line Hs578-T. In words: XTT growth inhibition assay, Hs578-T. It is filed as cell-based. To be noted: Hs-578T, Mammary Gland Carcinoma. On the procedure:
as §1, §2, §3

Assay [8] deals with human breast cancer cell line T47D. In words: XTT growth inhibition assay, T47D. Type of assay: cell-based. To be noted: Mammary Gland Ductal Carcinoma. On the procedure:
as §1, §2, §3

The subject of assay [9] is human Osteosarcoma cell line U2OS. Description: XTT growth inhibition assay, U2OS. Type of assay: cell-based. On the procedure: as §1, §2, §3
Assay [10] concerns human Glioblastoma cell line T98G. In words: XTT growth inhibition assay, T98G. To be noted: Glioblastoma Multiforme. It is filed as cell-based. On the procedure:
as §1, §2, §3

Assay [11] relates to human Cervical Cancer cell line HeLa. In words: XTT growth inhibition assay, HeLa. Type of assay: cell-based. To be noted: Cervix Adenocarcinoma. On the procedure: as §1, §2, §3
Assay [12] has as its system human mammary gland normal epithelial cell line MCF10A. Description: XTT growth inhibition assay, MCF10A normal control. Type of assay: cell-based. To be noted: MCF-10A. On the procedure:
as §1, §2, §3

Assay [13] relates to panel of cancer cell lines. Description: XTT growth inhibition assay, panel of cancer cell lines (summary). Type of assay: cell-based, human. On the procedure: as §1, §2, §3
The next assay concerns the target T1, RAD51 (Homo sapiens, UniProt Q06609).
T1 sequence (Q06609 1-339): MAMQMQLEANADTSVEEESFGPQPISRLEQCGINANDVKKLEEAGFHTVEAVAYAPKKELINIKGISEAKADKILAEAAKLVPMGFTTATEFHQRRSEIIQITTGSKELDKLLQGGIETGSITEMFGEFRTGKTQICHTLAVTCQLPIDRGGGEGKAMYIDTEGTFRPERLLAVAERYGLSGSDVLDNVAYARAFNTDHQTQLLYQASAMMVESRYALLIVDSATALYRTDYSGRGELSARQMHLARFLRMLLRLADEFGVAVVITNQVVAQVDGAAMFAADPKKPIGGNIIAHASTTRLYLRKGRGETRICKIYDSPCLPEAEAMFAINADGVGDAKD
Description: Multimer formation assay (gel filtration). Type of assay: biochemical. To be noted: RAD51:IBR120 1:10 molar ratio, gel filtration profile. On the procedure: A mixture of RAD51 (3.2 μg) and IBR120 (1:10 molar ratio) was incubated for 15 min at 37° C., supplemented with buffer (50 mM triethanolamine-HCl [pH7.5], 0.5 mM Mg(OAc)2, 1 mM DTT, 2 mM ATP and 100 μg/ml BSA, total volume 20 μl) and incubated for 15 min. The mixture was loaded onto a 2.4 ml Superdex 200 PC 3.2/30 column (Pharmacia) equilibrated with the same buffer as previously described (Zhu et al., 2013, EMBO Mol. Med. 5:1-13; Pierce et al., 1999, Genes Dev. 13:2633-2638). Fractions (50 μl) were collected and 0.5 μl of each fraction was blotted onto PVDF membrane. RAD51 was detected using anti-RAD51 antibody (mAb 14B4, GeneTex)
On the RAD51 core domain, a hydrophobic pocket formed between β-strand B3 and α-helix A4 of RAD51 is critical for RAD51 multimerization (Pellegrini et al., 2002, Nature 420:287-293). It was hypothesized that IBR compounds should be able to inhibit RAD51 multimerization. In order to test this hypothesis, the gel filtration profile of RAD51 multimerization in the presence of IBR120 or vehicle (DMSO) alone were compared.

Assay [14] relates to HR repair in HeLa-DR-GFP cells. In words: HR assay (I-SceI inducible gene conversion, DR-GFP). Type of assay: cell-based, human. To be noted: 10 or 20 μM, 24 hours, GFP positive cells by flow cytometry. On the procedure:
HR frequency was measured by two-colour fluorescence flow cytometric analysis using HeLa-DR-GFP cells. Fifty thousand events were analyzed for each experiment. Cells were treated with DMSO (mock), 10 or 20 μM of IBR2 or IBR120 as indicated for 24 hours after transient transfection with I-SceI expression vector pCABSce for 24 hours. HR frequencies were indicated by GFP positive cell percentages. […] DMSO. […] DMSO. […] DMSO. […] DMSO. […] GFP positive cell percentages by indicated treatments obtained from three independent experiments are summarized as means±SD.
Using previously described methods (Zhu et al., 2013, EMBO Mol. Med. 5:1-13; Pierce et al., 1999, Genes Dev. 13:2633-2638), HeLa cells stably expressing DR-GFP were transfected with the I-Sce expression vector pCBASce and treated with compounds or DMSO. Cells were then trypsinized and subjected to flow cytometry.
Inhibition of RAD51 function will lead to failure in HR repair. […] Upon I-SceI expression by transient transfection for 24 hours to induce DSBs, cells were treated with DMSO, 10 or 20 μM of IBR120 or IBR2 for another 24 hours and the GFP positive population resulting from successful recombination was measured by flow cytometry.

`O=S(=O)(Cc1ccccc1)N1Cc2ccccc2[C@@H]1c1c[nH]c2ccccc12` [IBR120, (R)-3-(2-(benzylsulfonyl)isoindolin-1-yl)-1H-indole]: the IC50 was 3.1 µM in [1] (96 h, MDA-MB-468, XTT assay, four-day drug treatment, read-out: IC50); 3.24 µM in [1] (MDA-MB-468, growth inhibition, raw dataset for SAR analysis, read-out: pIC50 (converted)); 3.1 ± 0.4 µM in assay [1] (MDA-MB-468, Mammary Gland Adenocarcinoma (Table 3, with spread), read-out: IC50); 3.6 ± 0.7 µM in [2]; 3.1 ± 0.2 µM in assay [3]; 3.5 ± 0.4 µM in [4]. Further, the IC50 in assay [5] is 4.5 ± 0.7 µM; in assay [6], 4 ± 0.7 µM; in assay [7], 4.9 ± 1 µM; in assay [8], 6.3 ± 1.5 µM; in assay [9], 4.7 ± 0.5 µM; in assay [10] it was 9.5 ± 0.9 µM. For the same compound, the IC50 was 3.6 ± 0.6 µM in assay [11]; above 30 µM in [12]; 3 to 5 µM in assay [13] (Homo sapiens, XTT assay, read-out: IC50 values in most tested cancer cell lines). Besides, the “IC50 compared with that of the parental compound IBR2 (in words)” value in [1] (MDA-MB-468) is listed as “significantly lower”. In addition, the “difference between the IC50 values in normal and cancer cells” value in assay [13] (MCF10A versus cancer cell lines) is “approximately 10 fold”. The “RAD51 multimerization (in words)” value at RAD51 was “capable of disrupting RAD51 multimerization; also recorded: can inhibit RAD51 multimerization; also recorded: can disrupt RAD51 multimer formation in vitro; also recorded: inhibits RAD51 multimerization”. In [14], the “HR frequency / HR repair (in words)” value is recorded as “impairing homologous recombination repair; also recorded: significantly reduced; also recorded: greater depression of HR repair activity; also recorded: inhibit HR repair in cells; also recorded: dose dependently inhibits HR repair”.
